We go through three compounds from US7973018B2, “Cell cycle arrest and apoptosis” (University of Utah Research Foundation, priority 2004, dated 2011).

The test system of one assay is ATM and ATR. The conditions noted are these: vpr-infected cells; references 5, 53; cited from earlier work.
The test system of the next assay is ATR and ATM. Conditions: references 40, 53; cited from earlier work.
For another assay, the system named is γ-H2AX. The assay can be described thus: γ-H2AX focus formation, immunofluorescence confocal microscopy. The assay is classed as cell-based, human. How it is done: (§1) Immunofluorescence staining. HeLa cells were harvested 48 h posttransduction by trypsinization. Single-cell suspensions of minced thymic tissue were prepared for immunostaining 20 h after HIV-1NL4-3 infection. Cells were fixed with 2% paraformaldehyde in phosphate-buffered saline (PBS) for 35 min at 4° C. and then washed three times for 5 min each time in PBS. All subsequent steps were carried out at room temperature. Samples were blocked and permeabilized for 20 min in blocking buffer (3% bovine serum albumin (BSA), 0.2% Triton X-100, and 0.01% skim milk in PBS). Primary antibody (rabbit anti-γ-H2AX (48) or rabbit anti-BRCA1 (Bethyl Laboratories, Montgomery, Tex.)) was diluted 1:400 in incubation buffer (1% BSA and 0.02% Triton X-100 in PBS) and incubated with cells for 45 min. Cells were washed with PBS, after which secondary antibody (goat anti-rabbit immunoglobulin G (IgG)-AlexaFluor568 conjugate (Molecular Probes, Eugene, Oreg.)) diluted 1:500 in incubation buffer was applied for 35 min. Cells were washed with PBS as before and mounted on glass slides by using Fluor Save reagent (CalBiochem, San Diego, Calif.). Cells were visualized for γ-H2AX or BRCA1 immunostaining and green fluorescent protein (GFP) expression by scanning fluorescence confocal microscopy (FluoView FV300; Olympus, Melville, N.Y.).
(§2) Drug treatment. Cells were incubated with 10 mM hydroxyurea (HU) for 2 h before immunostaining was done.
(§3) Vpr expression induces γ-H2AX and BRCA1 focus formation. It was possible that Vpr, through ATR activation, would induce γ-H2AX (9) and BRCA1 (45) focus formation. To test this hypothesis, HeLa cells were infected with pHR-Vpr or pHR-GFP and, 48 h later, immunostained with γ-H2AX- or BRCA1-specific antibodies. As a positive control, nontransduced cells were treated for […] with 10 mM HU 10 min prior to immunostaining (46). Samples then were visualized by fluorescence scanning confocal microscopy (FIGS. 3A and B). Cells with multiple (10 or more), intense nuclear foci were manually counted. […]

A further assay deals with HeLa cells. The assay can be described thus: Cell cycle analysis (G2 arrest) by flow cytometry in HeLa cells. Conditions: ATR target Rad17; this work. The assay is classed as cell-based, human. Details: key: P, phosphorylated; A, activated; N, necessary for G2 checkpoint activation; F, focus formation; ?, unknown; D, dispensable for G2 checkpoint activation. How it is done:
Cell cycle analysis. At 48 h after infection, cells were detached by trypsinization, washed with fluorescence-activated cell sorting (FACS) buffer (2% FBS and 0.02% sodium azide in PBS), fixed with 2% paraformaldehyde in PBS, and permeabilized with 0.01% Triton X-100 in PBS for 15 min. Cells were washed again with FACS buffer, incubated in DNA staining buffer (10 μg of propidium iodide/ml and 11.25 kU of RNase A/ml in FACS buffer) for 15 min, and analyzed by FACScan flow cytometry for GFP expression or DNA content (Beckton Dickinson, Franklin Lakes, N.J.). In experiments involving transduction with lentivirus vectors, experiments with 90% transduction efficiency or higher were analyzed. […]
Lentivirus vectors. […] Vector titers were measured by infection of HeLa cells as described herein, followed by flow cytometric analysis of cells that were positive for the reporter molecule, GFP. Vector titers were calculated with the equation [(F×C0)/V]×D, where F is the frequency of GFP-positive cells found by flow cytometry, C0 is the total number of target cells at the time of infection, V is the volume of inoculum, and D is the virus dilution factor. […]
Rad17 is necessary for Vpr-mediated G2 arrest. […] At 48 h after transduction, cells were analyzed by flow cytometry for infection efficiency and DNA content, as reported by GFP expression and propidium iodide staining, respectively. […]

For the next assay, the system named is Chk1. Conditions: ATR target Chk1; reference 40; cited from earlier work.
For the next assay, the system named is p53. Details: key: P, phosphorylated; A, activated; N, necessary for G2 checkpoint activation; F, focus formation; ?, unknown; D, dispensable for G2 checkpoint activation. Conditions: ATR target p53; reference 41; cited from earlier work.
The subject of assay [1] is BRCA1. The assay can be described thus: BRCA1 focus formation, immunofluorescence confocal microscopy. It is filed as cell-based, human. How it is done: as §1, §2, §3
For assay [2], the system named is BRCA1. Briefly: Western blot for BRCA1 phospho-serine 1423. The assay is classed as cell-based, human. The conditions noted are these: HeLa cells infected with pHR-VPR, 48 hours post-transduction. As to the method: Western blotting procedures. All western blots were performed using the BioRad Criterion gel system (BioRad, Hercules, Calif.). Antibodies used were GADD45 (Santa Cruz Biotechnology, Santa Cruz, Calif.; sc-797), Actin (Santa Cruz Biotechnologies, Santa Cruz, Calif.; sc-797), CHK2 (Santa Cruz Biotechnology, Santa Cruz, Calif.; sc-8813), ATM (Novus Biologicals, Littleton, Colo.; catalog #100-104H1), phospho-JNK-Tyr183 (Cell Signaling Technology, Beverly, Mass.; catalog #9255S), phospho-p38 kinase (Promega, Madison; 15823207), JNK (Cell Signaling Technology, Beverly, Mass.; 9252), ATR (obtained from Dr. Paul Nghiem, Harvard), anti-rabbit secondary-HRP (Santa Cruz Biotechnology, Santa Cruz, Calif.; sc-2030), anti-goat secondary-HRP (Santa Cruz Biotechnology, Santa Cruz, Calif.; sc-2033), PARP (Cell Signaling Technology, Beverly, Mass.), BRCA1 phospho ser1423 (Bethyl Laboratories, Montgomery, Tex.) Rabbit primary antibodies against Rad17 (Santa Cruz Biotechnology, Santa Cruz, Calif.), and were applied for 90 min at room temperature. Blots were washed three times in TPBS (0.1% Tween 20 in PBS) for 10 min each time at room temperature.
Phosphorylation of BRCA1 at serine 1423 by HIV-1 Vpr is ATR-dependent. Following DNA damage, ATR phosphorylates BRCA1 at serine 1423 (45, 63). […]
On the technique in general: In western blotting, separated proteins are transferred to a membrane and probed.

Where [3] appears, read: HeLa cells, 48 h after infection, 10 or more intense nuclear foci.
Setting [4] is: nontransduced HeLa cells treated for 1 h with 10 mM HU.

Entries after “also recorded” stand apart in the source; their conditions may differ.

Regarding `Cn1c(=O)c2c(ncn2C)n(C)c1=O` [caffeine], the “effect on Vpr-induced apoptosis” value in the assay with ATM and ATR is listed as “largely eliminated induction of apoptosis; also recorded: significantly reduces Vpr-induced apoptosis”. The “relief of Vpr-induced G2 arrest” value in the assay with ATR and ATM is listed as “completely relieve Vpr-induced G2 arrest”.
With “Vpr: HIV-1 accessory protein Vpr, expressed in cells from pHR-Vpr”, the “Status in the presence of Vpr (reference or source): H2AX” value in the assay on γ-H2AX (ATR target H2AX, this work) was “P, F (this work)”. Besides, in the assay on γ-H2AX (setting [3]), the “cells exhibiting γ-H2AX foci” value was “Approximately 93%”. Also, the “Status in the presence of Vpr (reference or source): Rad17” value in the assay with HeLa cells is “N (this work)”. In addition, the “Status in the presence of Vpr (reference or source): Chk1” value in the assay on Chk1 was “P, A (40)”. The “Status in the presence of Vpr (reference or source): p53” value in the assay on p53 is given as “D (41)”. Further, in the assay with BRCA1 [1] (ATR target BRCA1, this work), the “Status in the presence of Vpr (reference or source): BRCA1” value was “P, F (this work)”. Moreover, the “cells exhibiting BRCA1 foci” value with BRCA1 [1] (setting [3]) is listed as about 69%. Also, the “phosphorylation of BRCA1 at serine 1423” value with BRCA1 [2] is recorded as “induced phosphorylation of BRCA1 at serine 1423”.
In the case of `NC(=O)NO` [HU, hydroxyurea, reference compound], the “cells exhibiting γ-H2AX foci” value with γ-H2AX (setting [4]) is on record as “Approximately 94%”. In the assay on BRCA1 [1] (setting [4]), the “cells exhibiting BRCA1 foci” value was about 65%.
